The source of these data is patent US20180228858A1, “A PLANT EXTRACT AND COMPOUNDS FOR USE IN WOUND HEALING” (priority 2014, published 2018).

The target in one data set is T1, human CYP11B1 (Homo sapiens, UniProt P15538).
T1 construct: expressed in transfected cells; host or cells: V79MZh11B1 cell line (V79 hamster fibroblasts by own knowledge)
T1 sequence (P15538 25-503): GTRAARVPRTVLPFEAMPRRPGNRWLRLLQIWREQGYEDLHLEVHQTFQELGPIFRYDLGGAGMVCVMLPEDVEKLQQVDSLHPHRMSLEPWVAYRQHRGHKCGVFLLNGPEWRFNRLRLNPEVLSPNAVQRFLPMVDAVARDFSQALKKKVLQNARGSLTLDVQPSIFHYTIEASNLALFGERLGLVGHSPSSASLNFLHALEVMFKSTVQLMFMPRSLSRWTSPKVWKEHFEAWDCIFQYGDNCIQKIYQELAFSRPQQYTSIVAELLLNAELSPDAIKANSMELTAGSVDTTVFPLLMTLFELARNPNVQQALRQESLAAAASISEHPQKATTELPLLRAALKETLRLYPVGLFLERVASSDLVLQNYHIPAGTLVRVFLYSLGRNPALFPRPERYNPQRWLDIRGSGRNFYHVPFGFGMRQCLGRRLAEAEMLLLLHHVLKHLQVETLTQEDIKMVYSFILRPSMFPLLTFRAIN
Nature of the data set: CYP11B1 assay in V79MZh11B1 cells expressing recombinant human CYP11B1. It is filed as cell-based. The following applies: mean ± SD of 2 independent experiments; for % CYP11B1 Inhibition: 10 μM; for inhibition at 1 µM: V79MZh11B1, 1 μM; for inhibition at 10 µM: V79MZh11B1, 10 μM; for inhibition at 100 µM: V79MZh11B1, 100 μM. The protocol:
Applicant dissolved ˜10 mg of the Salvia m. Bunge extract (as disclosed in WO2009050451) in the required volume of 100% ethanol or 100% DMSO to obtain a 1% (w/v) extract solution. They tested 5 μL of this solution in a 500 μL assay incubation volume (final ethanol or DMSO conc. of 1%). From this 1% Salvia m. Bunge extract solution, they also prepared a 1:10 and 1:100 dilution in 100% ethanol or 100% DMSO. From these solutions, they tested 5 μL in a 500 μL assay incubation volume.
The V79MZh11B1 cell line, expressing recombinant human CYP11B1, was cultured in Dulbecco's modified Eagle (DME, Sigma) medium supplemented with 5% fetal calf serum (FCS; Sigma), penicillin G (100 U/ml), streptomycin (100 μg/ml), glutamine (2 mM) and sodium pyruvate (1 mM) at 37° C. in 5% CO2 in air. Cells were placed on 24-well cell culture plates (8×10^5 cells per well) and cultured in 1 ml DME medium per well until confluence. On the day of testing, DME medium was removed and 450 μl of fresh DMEM, containing 5 μl of the extract solution in 100% ethanol or 100% DMSO, was added to each well. There was no significant difference in CYP11B1 inhibition between DMSO or ethanol as solvent. Control wells (receiving vehicle or ketoconazole (final concentration of 50 nM) as reference compound to validate each experiment) were treated in the same way without extract solution. After 60 min at 37° C. in the CO2 incubator, the reaction was started by the addition of 50 μl of DMEM containing 100 nM of 11-deoxycorticosterone (plus 0.15 μCi of [1,2-^3H] 11-deoxycorticosterone) as substrate. All measurements were in duplicate. After 25 min, the enzyme reaction was stopped by extracting the supernatant with ethyl acetate. Samples were centrifuged (10,000×g, 10 min), and the upper phase was pipetted into fresh cups. The ethylacetate solvent was evaporated and the residue was dissolved in 40 μl of methanol and analyzed by HPLC. The following formulas were used to determine the level of conversion and percentage of enzyme inhibition.
Given the activity of the extract the Applicant looked at the activity of some of the tanshinones using the methodology described in Example 1.

A further data set deals with V79MZh11B1 cells. Nature of the data set: MTT cellular viability assay. It is filed as cell-based. The protocol: In order to check that the inhibition was not due to toxicity, a MTT [3-(4,5-dimethylthiazol-2-yl)-2,5-diphenyl-tetrazolium bromide] cellular viability assay was performed in the same cell line under the incubation conditions used in the CYP11B1 screening assay as set out in Example 2 below:
V79MZh11B1 cells were cultured on 24-well cell culture plates (8×10^5 cells per well) in 1 ml DME medium until confluence. On the day of testing, DME medium was removed and 450 μl of fresh DME medium with 5% FCS, containing 5 μl of the Salvia m. Bunge extract solution in 100% ethanol, was added to each well. Ethanol (1%) and Triton® X-100 (0.0006%) were used as vehicle and positive control (all final concentrations), respectively. All measurements were in quadruplicate. After 60 min at 37° C. in a 5% CO2, 50 μl of fresh DME medium (+5% FCS) was added to each well. After 25 min, medium was replaced by 500 μl fresh DME medium (+5% FCS) to which 25 μl of MTT solution (5 mg per ml PBS, pH 7.2) was added immediately. After 30 min, all medium was removed and the cells were lysed in 250 μl of 0.5% acetic acid (v/v), 10% SDS (w/v) in DMSO. Absorbance of formazan was measured spectrophotometrically at 570 nm wavelength
(In general: Tetrazolium assays rely on reduction of a dye to a coloured formazan, in cell work by metabolically active cells.)

What is called inhibition is the drop in the measured response relative to a control, in per cent. As for `Cc1coc2c1C(=O)C(=O)c1c-2ccc2c(C)cccc12` [Tanshinone I], on human CYP11B1, the “% CYP11B1 Inhibition” value is 63.7 ± 4.5%, the inhibition at 1 µM was found to be 19.1 ± 7.9%, the inhibition at 10 µM was found to be 64% and the inhibition at 100 µM worked out at 81.1 ± 6.9%.
As for `C[C@H]1COC2=C1C(=O)C(=O)c1c2ccc2c1CCCC2(C)C` [Cryptotanshinone], on human CYP11B1, the inhibition at 1 µM worked out at 6.4 ± 1.6%, the inhibition at 10 µM worked out at 15.4 ± 10.3% and the inhibition at 100 µM came out at 59.9 ± 22%.
In the case of `Cc1cccc2c3c(ccc12)C1=C(C(=O)C3=O)[C@@H](C)CO1` [Dihydrotanshinone, 15,16-dihydrotanshinone I], on human CYP11B1, the “% CYP11B1 Inhibition” value was determined as 93.6 ± 9.1%, the inhibition at 1 µM turned out to be 43.3 ± 14.7%, the inhibition at 10 µM was determined as 94% and the inhibition at 100 µM is 100%.
In the case of `Cc1coc2c1C(=O)C(=O)c1c-2ccc2c1CCCC2(C)C` [Tanshinone IIA], at human CYP11B1, the inhibition at 1 µM was 5.9 ± 0.2%, the inhibition at 10 µM turned out to be 16.1 ± 13.5% and the inhibition at 100 µM was determined as 29.4 ± 0.4%.
For Triton X-100, the “Cell viability (MTT conversion into formazan, 1% ethanol = 100%)” value in the data set with V79MZh11B1 cells (Experiment 1, final conc. 0.0006%) is given as 3 ± 1%; in the data set with V79MZh11B1 cells (Experiment 2, final conc. 0.0006%) it was 3 ± 1%. The “effect on formazan formation” value with V79MZh11B1 cells (positive control, 0.0006%) was “almost fully block formazan formation”.
